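48-hour exposure; five concentrations; linearly interpolated endpoints. The concentration for 50% growth inhibition is given as GI50.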 Activity calls are given as the source filed them. Cut-off read from the data, not from the text of the source: active = GI50 up to about 1.1 µM and inactive = higher.
Key:
Test in all cases: DTP human tumour cell line panel, 48 h
UACC-257 = system: UACC-257
OVCAR-8 = system: OVCAR-8
XF498 = system: XF498
SNB-78 = system: SNB-78
LOX IMVI = system: LOX IMVI
NCI-H23 = system: NCI-H23
SK-MEL-28 = system: SK-MEL-28
TK-10 = system: TK-10
SF-295 = system: SF-295
RXF 393 = system: RXF 393
MOLT-4 = system: MOLT-4
LXFL 529 = system: LXFL 529
SF-268 = system: SF-268
SK-OV-3 = system: SK-OV-3
SNB-75 = system: SNB-75
SNB-19 = system: SNB-19
HL-60 = system: HL-60
SK-MEL-2 = system: SK-MEL-2
SW-620 = system: SW-620
RPMI-8226 = system: RPMI-8226
OVCAR-3 = system: OVCAR-3
HOP-92 = system: HOP-92
HOP-62 = system: HOP-62
UO-31 = system: UO-31
Malme-3M = system: Malme-3M
SR = system: SR
DMS-273 = system: DMS-273
OVCAR-5 = system: OVCAR-5
CCRF-CEM = system: CCRF-CEM
A549 = system: A549
NCI-H460 = system: NCI-H460
SF-539 = system: SF-539
EKVX = system: EKVX
HCC 2998 = system: HCC 2998
U-251 = system: U-251
COLO 205 = system: COLO 205
M19-MEL = system: M19-MEL
SN12C = system: SN12C
UACC-62 = system: UACC-62
ACHN = system: ACHN
HT-29 = system: HT-29
KM-20L2 = system: KM-20L2
HOP-18 = system: HOP-18
786-0 = system: 786-0
HCT-116 = system: HCT-116
HCT-15 = system: HCT-15
DLD-1 = system: DLD-1
NCI-H226 = system: NCI-H226
CAKI-1 = system: CAKI-1
A498 = system: A498
OVCAR-4 = system: OVCAR-4
IGROV-1 = system: IGROV-1
M14 = system: M14
SK-MEL-5 = system: SK-MEL-5
KM12 = system: KM12
NCI-H522 = system: NCI-H522
K562 = system: K562
DMS-114 = system: DMS-114
MDA-MB-231 = system: MDA-MB-231
MDA-MB-435 = system: MDA-MB-435
DU-145 = system: DU-145
BT-549 = system: BT-549
MCF7 = system: MCF7
PC-3 = system: PC-3

Measured: GI50

COc1cc(Nc2nc3ccccc3nc2-c2cccs2)cc(OC)c1OC
19 µM: HCT-15
inactive: UACC-257 28.8 µM | OVCAR-8 > 10 µM | XF498 19.2 µM | SNB-78 90.6 µM | LOX IMVI 45.6 µM | NCI-H23 50.6 µM | SK-MEL-28 52.1 µM | TK-10 35.8 µM | SF-295 22.8 µM | RXF 393 16.6 µM | MOLT-4 12.9 µM | LXFL 529 17.3 µM | SF-268 25.8 µM | SK-OV-3 40.2 µM | SNB-75 40.6 µM | SNB-19 56.9 µM | HL-60 15.2 µM | SK-MEL-2 85.3 µM | SW-620 50.4 µM | RPMI-8226 26.9 µM | OVCAR-3 43.8 µM | HOP-92 13.9 µM | HOP-62 39.4 µM | UO-31 > 10 µM | Malme-3M 67.9 µM | SR 26.1 µM | DMS-273 29.2 µM | OVCAR-5 > 100 µM | CCRF-CEM 47.1 µM | A549 21 µM | NCI-H460 33.7 µM | SF-539 40.6 µM | EKVX 89.5 µM | HCC 2998 36.4 µM | U-251 > 10 µM | COLO 205 > 10 µM | M19-MEL 40.5 µM | SN12C 30.9 µM | UACC-62 36.2 µM | ACHN 16.4 µM | HT-29 41.7 µM | KM-20L2 36.1 µM | HOP-18 > 100 µM | 786-0 22.4 µM | HCT-116 28.1 µM | DLD-1 23.7 µM | NCI-H226 66.7 µM

O=CC[C@H]1C(=O)C[C@@H]2CCC[C@@H]21
45.7 µM: HCT-15
inactive: UACC-257 > 100 µM | CAKI-1 > 100 µM | OVCAR-8 43.1 µM | XF498 > 100 µM | SNB-78 > 100 µM | A498 > 100 µM | OVCAR-4 > 100 µM | IGROV-1 > 100 µM | NCI-H23 43.7 µM | SK-MEL-28 > 100 µM | TK-10 > 100 µM | SF-295 > 100 µM | RXF 393 29.6 µM | M14 68.2 µM | MOLT-4 43.4 µM | LXFL 529 48 µM | SF-268 89.1 µM | SK-OV-3 > 100 µM | SNB-75 64.4 µM | SK-MEL-5 33.5 µM | SNB-19 > 100 µM | HL-60 32.1 µM | SK-MEL-2 59.2 µM | SW-620 46.9 µM | KM12 51.8 µM | RPMI-8226 42.4 µM | OVCAR-3 47.6 µM | HOP-92 57.3 µM | HOP-62 > 100 µM | Malme-3M > 100 µM | OVCAR-5 > 100 µM | CCRF-CEM 34.1 µM | A549 > 100 µM | NCI-H460 > 100 µM | SF-539 50.1 µM | EKVX > 100 µM | NCI-H522 > 100 µM | HCC 2998 > 100 µM | U-251 98.6 µM | COLO 205 > 100 µM | M19-MEL 56.2 µM | SN12C 92.3 µM | UACC-62 84.3 µM | ACHN > 100 µM | HT-29 94 µM | K562 34.2 µM | 786-0 > 100 µM | HCT-116 37.2 µM | NCI-H226 80.4 µM

CCOC(=O)COc1ccc(OCC(=O)OCC)c2c1C(=O)CCCC2=O
active: A498 0.281 µM | SK-MEL-5 0.26 µM
> 100 µM: HCT-15
inactive: UACC-257 > 100 µM | OVCAR-8 > 100 µM | XF498 > 100 µM | LOX IMVI > 100 µM | IGROV-1 3.13 µM | NCI-H23 > 100 µM | SK-MEL-28 > 100 µM | TK-10 > 100 µM | SF-295 > 100 µM | RXF 393 > 100 µM | M14 > 100 µM | MOLT-4 > 100 µM | LXFL 529 > 100 µM | SF-268 > 100 µM | SK-OV-3 > 100 µM | SNB-75 > 100 µM | SNB-19 > 100 µM | HL-60 > 100 µM | SK-MEL-2 > 100 µM | SW-620 > 100 µM | KM12 > 100 µM | RPMI-8226 > 100 µM | DMS-114 > 100 µM | OVCAR-3 > 100 µM | HOP-92 > 100 µM | HOP-62 > 100 µM | UO-31 > 100 µM | Malme-3M > 100 µM | SR > 100 µM | DMS-273 > 100 µM | OVCAR-5 > 100 µM | CCRF-CEM > 100 µM | A549 > 100 µM | NCI-H460 > 100 µM | SF-539 > 100 µM | EKVX > 100 µM | NCI-H522 > 100 µM | HCC 2998 > 100 µM | U-251 > 100 µM | COLO 205 > 100 µM | M19-MEL > 100 µM | SN12C > 100 µM | UACC-62 > 100 µM | ACHN > 100 µM | HT-29 > 100 µM | K562 > 100 µM | KM-20L2 > 100 µM | HOP-18 > 100 µM | 786-0 > 100 µM | HCT-116 > 100 µM | DLD-1 > 100 µM | NCI-H226 > 100 µM

CN1CC[C@@H](c2c(O)cc(O)c3c(=O)cc(-c4ccccc4Cl)oc23)[C@@H](O)C1
0.0399 µM: HCT-15
active: UACC-257 0.0552 µM | CAKI-1 0.0343 µM | OVCAR-8 0.0401 µM | XF498 0.149 µM | SNB-78 0.213 µM | A498 0.0507 µM | OVCAR-4 0.0643 µM | MDA-MB-231 0.0394 µM | LOX IMVI 0.0191 µM | IGROV-1 0.0304 µM | NCI-H23 0.0365 µM | SK-MEL-28 0.0455 µM | TK-10 0.0538 µM | SF-295 0.0604 µM | RXF 393 0.0169 µM | M14 0.034 µM | MOLT-4 0.0367 µM | LXFL 529 0.124 µM | SF-268 0.0348 µM | SK-OV-3 0.608 µM | SNB-75 0.0251 µM | SK-MEL-5 0.0248 µM | SNB-19 0.0407 µM | HL-60 0.0211 µM | SK-MEL-2 0.0366 µM | SW-620 0.0333 µM | KM12 0.0303 µM | RPMI-8226 0.0326 µM | DMS-114 0.113 µM | HOP-92 0.0556 µM | HOP-62 0.0324 µM | UO-31 0.0266 µM | Malme-3M 0.124 µM | SR 0.0263 µM | DMS-273 0.109 µM | MDA-MB-435 0.0332 µM | OVCAR-5 0.0384 µM | CCRF-CEM 0.0468 µM | DU-145 0.0411 µM | A549 0.0543 µM | NCI-H460 0.0352 µM | SF-539 0.0343 µM | EKVX 0.0885 µM | NCI-H522 0.0655 µM | HCC 2998 0.0693 µM | U-251 0.0385 µM | COLO 205 0.034 µM | SN12C 0.0471 µM | UACC-62 0.0273 µM | ACHN 0.0237 µM | HT-29 0.0942 µM | K562 0.167 µM | KM-20L2 0.174 µM | HOP-18 0.0562 µM | 786-0 0.0414 µM | BT-549 0.0395 µM | MCF7 0.0239 µM | HCT-116 0.02 µM | DLD-1 0.0528 µM | NCI-H226 0.0357 µM | PC-3 0.0385 µM

CC1CC(=O)C(CC(=O)O)[C@H]1C(C(=O)C(=O)Nc1cc(Cl)ccc1Cl)[N+](=O)[O-] (some centres not stated)
> 100 µM: HCT-15
inactive: CAKI-1 > 100 µM | OVCAR-8 > 100 µM | XF498 > 100 µM | A498 > 100 µM | LOX IMVI > 100 µM | IGROV-1 > 100 µM | SK-MEL-28 > 100 µM | TK-10 > 100 µM | SF-295 > 100 µM | RXF 393 > 100 µM | SF-268 > 100 µM | SK-OV-3 > 100 µM | SNB-75 85.9 µM | SK-MEL-5 > 100 µM | SNB-19 > 100 µM | HL-60 > 100 µM | SW-620 > 100 µM | KM12 > 100 µM | RPMI-8226 > 100 µM | DMS-114 > 100 µM | OVCAR-3 > 100 µM | HOP-92 > 100 µM | HOP-62 > 100 µM | UO-31 > 100 µM | SR > 100 µM | OVCAR-5 > 100 µM | CCRF-CEM > 100 µM | A549 > 100 µM | NCI-H460 > 100 µM | SF-539 > 100 µM | EKVX > 100 µM | NCI-H522 > 100 µM | HCC 2998 > 100 µM | U-251 > 100 µM | COLO 205 > 100 µM | M19-MEL > 100 µM | SN12C > 100 µM | UACC-62 > 100 µM | ACHN > 100 µM | HT-29 > 100 µM | K562 > 100 µM | KM-20L2 > 100 µM | HOP-18 > 100 µM | 786-0 > 100 µM | DLD-1 > 100 µM | NCI-H226 > 100 µM
